Measurements as given in patent US20180250403A1, “CONJUGATES” (AGENCY FOR SCIENCE, TECHNOLOGY AND RESEARCH, priority 2015, published 2018).

Tested on: B16F10 cells
Experiment: Cell proliferation / cytotoxicity (Incucyte) with and without light irradiation
Assay type: cell-based, murine
Details: B16F10, 10 uM
Procedure: Murine melanoma B16F10 cells were seeded at 3000-4000 cells per well in 96 well black view plate Perkin Elmer plates in DMEM media without phenol, as phenol red may interfere in the absorption of light. After overnight incubation, media was aspirated from the wells and varying concentrations of photosensitizers were added to the cells. Cells were incubated for 4 hours in dark at 37° C., after 4 hours cells were washed twice with 1×PBS and 300 μL of media was added to the wells before placing the plates in Incucyte ZOOM Live cell imaging machine to capture the images after every hour. Percentage confluence was measured over a time period. Similar approach was taken for keratinocyte cell lines NTERT-1 except the starting confluence was 75-85%. This is to mimic the physiological situation in the body where keratinocytes are present in much larger numbers than melanocytes. […]
Mouse melanoma cells B16-F10, human skin keratinocytes N-TERT-1 and primary human melanocytes MeL at cell densities of 4000 cells/well, 6000 cells/well and 3500 cells/well respectively were seeded to achieve similar starting confluence in 96-black Perkin-Elmer well plate in DMEM medium without phenol red (for B16F10 and MeL) and KSFM media (for N/TERT-1 cells) and kept for overnight at 37° C. […] Percentage confluence was measured over a time period. […]

With CN(C)c1ccc2nc3ccc(=[N+](C)C)cc-3sc2c1 [MB, methylene blue] the cytotoxicity in dark was “no cytotoxicity”.
